Test results: US12018157B2, “Tunable photoactivatable silicon rhodamine fluorophores” (SPIROCHROME AG, priority 2017, dated 2024)

Tests used:
[1] = UV-Vis analysis / full absorbance spectra of PA-SiR 2a before and after UV irradiation; assay type: physicochemical; conditions: PBS
Method: PBS solutions of different pH were adjusted by addition of HCl or NaOH solution using a pH meter.
Solutions were prepared in PBS ([…] or 20 μM) at the indicated pH. UV irradiation was performed outside of the spectrometer for the indicated period (T). Absorbance spectra were recorded using a SHIMADZU UV spectrophotometer (UV-1800) and 1 cm fluorescence quartz cuvettes (Hellma Analytics). Spectra were recorded every minute.
Solutions of 2a in PBS (10 μM) at the desired pH were prepared in 1 cm fluorescence quartz cuvette (Hellma Analytics). UV irradiation was performed directly inside the spectrophotometer during the running experiment at a fixed distance (F, single flash). Kinetic absorbance measurements were recorded on a Perkin-Elmer Lambda 950 spectrophotometer at 646 nm.

[2] = tested on: Actin; experiment: Live-cell imaging, localisation of PA-SiR-Actin to its target; assay type: cell-based
Method: (§1) HeLa or U2OS cells were cultured in high-glucose DMEM media with GlutaMAX-1 (Life Technologies) supplemented with 10% FBS (Life Technologies) in a humidified 5% CO2 incubator at 37° C. Cells were split every 3-4 days or at confluency.
(§2) Cells were stained with 1-3 μM PA-SiR (1-2 h, 37° C.), washed with phenol-red free DMEM medium (Life Technologies) or PBS (once for 3 min, 37° C.) and imaged in the same medium.
(§3) Imaging was performed using a Leica DMI6000B microscope equipped with a Hamamatsu-C9100 EM-CCD camera and a HCX PL APO 100.0×1.47 Oil objective and a standard Cy5 filter set was used. Activation of the fluorophores was achieved by irradiation with the DAPI-channel at 100% for 10-20 s. The same settings (exposure time=150 ms, gain=3, EM-gain=800, transmission=12.5%) were used for the images taken before and after UV irradiation in the SiR-channel.
(§4) Confocal imaging was performed on a Leica DMi8 microscope equipped with a Leica TCS SP8 X scanhead, a white light laser, a 355 nm laser (Coherent) and HC PL APO 63×1.47 Oil objective. The 355 nm laser was used to perform the photoactivation.

[3] = tested on: DNA; experiment: Live-cell imaging, localisation of PA-SiR-DNA to its target; assay type: cell-based
Method: as §1, §2, §3, §4

[4] = tested on: HaloTag in the nucleus of Hela cells; experiment: Live-cell imaging, localisation in Hela cells expressing HaloTag in the nucleus; assay type: cell-based
Method: (§5) Mammalian expression vectors with a SNAP-tag-NLS or SNAP-tag-Halo-tag-NLS fusion construct were available in the Johnsson lab. H2B-Halo was constructed from a pEBTet plasmid and the commercially available pCLIPf-H2B plasmid (NEB).
as §1
(§6) Cells were seeded on glass bottom 35 mm dishes (Mattek) one day before imaging. Transient transfection of cells was performed using Lipofectamine™ 2000 reagent (Life Technologies) according to the manufacturer's recommendations: DNA (2.5 μg) was mixed with OptiMEM I (100 μL, Life Technologies) and Lipofectamine™ 2000 (6 μL) was mixed with OptiMEM I (100 μL). The solutions were incubated for 5 min at room temperature. They were mixed and incubated for 20 min at room temperature. Prepared DNA-Lipofectamine complex was added to a glass bottom 35 mm dish with cells at 50-70% confluency. After 6 h incubation in a humidified 5% CO2 incubator at 37° C. the medium was changed to a fresh high-glucose DMEM medium with GlutaMAX-1 supplemented with 10% FBS. The cells were incubated for 1-2 days before imaging. […]

[5] = tested on: HaloTag-H2B fusion; experiment: Live-cell imaging, U2OS cells expressing HaloTag-H2B fusion; assay type: cell-based; conditions: 1 μM, 1 h (FIG. 3)
Method: FIG. 3 U2OS cells expressing HaloTag-H2B fusion stained with PA-SiR-Halo for 1 h (1 μM) and washed once for 3 min. Images were taken before and after irradiation with the 355 nm laser on a confocal microscope. Scale bar 30 μm.
as §5, §1
as §6, with “confluency.” for “confluency. After 6 h incubation in a humidified 5% CO2 incubator at 37° C. the medium was changed to a fresh high-glucose DMEM medium with GlutaMAX-1 supplemented with 10% FBS. The cells were incubated for 1-2 days before imaging.”

[6] = tested on: SNAP-tag in the nucleus of Hela cells; experiment: Live-cell imaging, localisation in Hela cells expressing SNAP-tag in the nucleus; assay type: cell-based
Method: as §5, §1, §6

[7] = tested on: Tubulin; experiment: Live-cell imaging, localisation of PA-SiR-Tubulin to its target; assay type: cell-based
Method: as §1, §2, §3, §4

For CN(C)c1ccc2c(c1)[Si](C)(C)c1cc(N(C)C)ccc1C2=CCCC(=O)O [2a, 4-(3,7-Bis(dimethylamino)-5,5-dimethyldibenzo[b,e]silin-10(5H)-ylidene)butanoicacid], the “absorbance (before photoactivation)” value [1] was “only absorbance in the UV-range”.

In the case of C/C1=C\CC[C@H](C)OC(=O)C[C@H](c2ccc(O)cc2)NC(=O)[C@@H](Cc2cc3ccccc3[nH]2)N(C)C(=O)[C@H](CCCCNC(=O)CCC=C2c3ccc(N(C)C)cc3[Si](C)(C)c3cc(N(C)C)ccc32)NC(=O)[C@@H](C)C1 [PA-SiR-Actin, N-(4-((4R,7R,10S,13S,19S,E)-7-((1H-Indol-2-yl)methyl)-4-(4-hydroxyphenyl)-8,13,15,19-tetramethyl-2,6,9,12-tetraoxo-1-oxa-5,8,11-triazacyclononadec-15-en-10-yl)butyl)-4-(3,7-bis(dimethylamino)-5,5-dimethyldibenzo[b,e]silin-10(5H)-ylidene)butanamide], the “localisation to target (actin)” value [2] is reported as “localised to their targets”.

In the case of CN1CCN(c2ccc3nc(-c4ccc5nc(-c6ccc(OCCCCNC(=O)CCC=C7c8ccc(N(C)C)cc8[Si](C)(C)c8cc(N(C)C)ccc87)cc6)[nH]c5c4)[nH]c3c2)CC1 [PA-SiR-DNA, 4-(3,7-Bis(dimethylamino)-5,5-dimethyldibenzo[b,e]silin-10(5H)-ylidene)-N-(4-(4-(6-(4-methylpiperazin-1-yl)-1H,3′H-[2,5′-bibenzo[d]imidazol]-2′-yl)henoxy)butyl)butanamide], the “localisation to target (DNA)” value [3] is reported as “localised to their targets”.

For CN(C)c1ccc2c(c1)[Si](C)(C)c1cc(N(C)C)ccc1C2=CCCC(=O)NCCOCCOCCCCCCCl [PA-SiR-Halo, 4-(3,7-Bis(dimethylamino)-5,5-dimethyldibenzo[b,e]silin-10(5H)-ylidene)-N-(2-(2-((6-chlorohexyl)oxy)ethoxy)ethyl)butanamide], the “localisation to HaloTag in the nucleus” value [4] was “successfully localised” and the “localisation to H2B” value [5] was “successfully localised”.

In the case of CN(C)c1ccc2c(c1)[Si](C)(C)c1cc(N(C)C)ccc1C2=CCCC(=O)NCc1ccc(COc2nc(N)nc3[nH]cnc23)cc1 [PA-SiR-SNAP, N-(4-(((2-Amino-9H-purin-6-yl)oxy)methyl)benzyl)-4-(3,7-bis(dimethylamino)-5,5-dimethyldibenzo[b,e]silin-10(5H)-ylidene)butanamide], the “localisation to SNAP-tag in the nucleus” value [6] is reported as “successfully localised”.

With CC(=O)O[C@@]12CO[C@@H]1C[C@H](O)[C@@]1(C)C(=O)[C@H](O)C3=C(C)[C@@H](OC(=O)C(O)C(NC(=O)CCCCCCCNC(=O)CCC=C4c5ccc(N(C)C)cc5[Si](C)(C)c5cc(N(C)C)ccc54)c4ccccc4)C[C@@](O)([C@@H](OC(=O)c4ccccc4)[C@H]21)C3(C)C (stereo partly drawn) [PA-SiR-Tubulin, (2αR,4S,4αS,6R,9S,11S,12S,12αR,12βS)-12β-Acetoxy-9-((3-(8-(4-(3,7-bis(dimethylamino)-5,5-dimethyldibenzo[b,e]silin-10(5H)-ylidene)butanamido)octanamido)-2-hydroxy-3-phenylpropanoyl)oxy)-4,6,11-trihydroxy-4α,8,13,13-tetramethyl-5-oxo-2α,3,4,4α,5,6,9,10,11,12,12α,12β-dodecahydro-1H-7,11-methanocyclodeca[3,4]benzo[1,2-β]oxet-12-yl benzoate] the “localisation to target (tubulin)” value [7] was “localised to their targets”.
